The NIST ThermoML archive (doi:10.1021/je200903m)
Numbers after ± are expanded uncertainties.

Conditions: Liquid, isochoric method

CCCCn1cc[n+](C)c1.O=S(=O)([O-])C(F)(F)F [1-butyl-3-methylimidazolium trifluoromethanesulfonate]
mass density (290.5 K, 40403 kPa): 1326.13 ± 1.5 kg/m3
mass density (290.51 K, 20585 kPa): 1315.76 ± 1.4 kg/m3
mass density (290.53 K, 10565 kPa): 1310.84 ± 1.4 kg/m3
mass density (290.69 K, 30827 kPa): 1321.18 ± 1.4 kg/m3
mass density (291.26 K, 1592.1 kPa): 1304.62 ± 1.4 kg/m3
mass density (298.15 K, 9757.7 kPa): 1303.63 ± 1.4 kg/m3
mass density (298.15 K, 19969 kPa): 1309.73 ± 1.4 kg/m3
mass density (298.15 K, 20141 kPa): 1309.72 ± 1.4 kg/m3
mass density (298.15 K, 30285 kPa): 1314.63 ± 1.4 kg/m3
mass density (298.15 K, 50367 kPa): 1324.98 ± 1.4 kg/m3
mass density (298.16 K, 9701.7 kPa): 1303.63 ± 1.4 kg/m3
mass density (298.16 K, 19936 kPa): 1309.73 ± 1.4 kg/m3
mass density (298.16 K, 30053 kPa): 1314.64 ± 1.4 kg/m3
mass density (298.16 K, 40303 kPa): 1320.08 ± 1.4 kg/m3
mass density (298.16 K, 40410 kPa): 1320.08 ± 1.4 kg/m3
mass density (298.17 K, 10081 kPa): 1303.62 ± 1.4 kg/m3
mass density (298.17 K, 10432 kPa): 1304.22 ± 1.4 kg/m3
mass density (298.17 K, 50464 kPa): 1324.97 ± 1.4 kg/m3
mass density (299.03 K, 2480.8 kPa): 1298.81 ± 1.4 kg/m3
mass density (305.41 K, 59674 kPa): 1323.93 ± 1.4 kg/m3
mass density (305.45 K, 10034 kPa): 1297.93 ± 1.4 kg/m3
mass density (305.45 K, 19292 kPa): 1303.2 ± 1.4 kg/m3
mass density (305.9 K, 39945 kPa): 1313.54 ± 1.4 kg/m3
mass density (306 K, 29921 kPa): 1308.61 ± 1.4 kg/m3
mass density (306 K, 50404 kPa): 1318.95 ± 1.4 kg/m3
mass density (306.05 K, 19559 kPa): 1302.52 ± 1.4 kg/m3
mass density (307.17 K, 1752 kPa): 1291.55 ± 1.4 kg/m3
mass density (313.41 K, 59599 kPa): 1317.95 ± 1.4 kg/m3
mass density (313.93 K, 49845 kPa): 1312.46 ± 1.4 kg/m3
mass density (314.21 K, 9839.1 kPa): 1290.64 ± 1.4 kg/m3
mass density (314.21 K, 20109 kPa): 1296.78 ± 1.4 kg/m3
mass density (314.21 K, 39744 kPa): 1307.53 ± 1.4 kg/m3
mass density (314.32 K, 29477 kPa): 1301.43 ± 1.4 kg/m3
mass density (314.85 K, 831 kPa): 1284.6 ± 1.4 kg/m3
mass density (321.66 K, 59111 kPa): 1311.47 ± 1.4 kg/m3
mass density (321.82 K, 29288 kPa): 1295.81 ± 1.4 kg/m3
mass density (323.07 K, 39773 kPa): 1300.33 ± 1.4 kg/m3
mass density (323.16 K, 50452 kPa): 1306.39 ± 1.4 kg/m3
mass density (323.18 K, 10082 kPa): 1283.58 ± 1.4 kg/m3
mass density (323.2 K, 20072 kPa): 1289.53 ± 1.4 kg/m3
mass density (323.4 K, 1581.8 kPa): 1277.54 ± 1.4 kg/m3
mass density (330.39 K, 28233 kPa): 1288.68 ± 1.4 kg/m3
mass density (330.5 K, 39240 kPa): 1294.79 ± 1.4 kg/m3
mass density (331.3 K, 241.1 kPa): 1270.51 ± 1.4 kg/m3
mass density (331.38 K, 10182 kPa): 1276.63 ± 1.4 kg/m3
mass density (331.38 K, 19050 kPa): 1282.64 ± 1.4 kg/m3
mass density (331.38 K, 59986 kPa): 1305.41 ± 1.4 kg/m3
mass density (331.78 K, 49813 kPa): 1299.3 ± 1.4 kg/m3
mass density (339.84 K, 49769 kPa): 1293.74 ± 1.4 kg/m3
mass density (340.71 K, 39738 kPa): 1287.53 ± 1.4 kg/m3
mass density (340.73 K, 10118 kPa): 1269.5 ± 1.4 kg/m3
mass density (340.75 K, 20227 kPa): 1275.61 ± 1.4 kg/m3
mass density (340.93 K, 60046 kPa): 1298.28 ± 1.4 kg/m3
mass density (341.39 K, 30102 kPa): 1281.54 ± 1.4 kg/m3
mass density (341.68 K, 1330.2 kPa): 1262.9 ± 1.4 kg/m3
mass density (347.88 K, 58421 kPa): 1292.89 ± 1.4 kg/m3
mass density (350.01 K, 30185 kPa): 1274.67 ± 1.4 kg/m3
mass density (350.14 K, 9957.7 kPa): 1262.06 ± 1.4 kg/m3
mass density (350.15 K, 19909 kPa): 1268.55 ± 1.4 kg/m3
mass density (350.31 K, 39671 kPa): 1280.63 ± 1.4 kg/m3
mass density (350.38 K, 50208 kPa): 1286.54 ± 1.4 kg/m3

CCn1cc[n+](C)c1.F[B-](F)(F)F [1-ethyl-3-methylimidazolium tetrafluoroborate]
mass density (284.73 K, 40082 kPa): 1309.71 ± 1.3 kg/m3
mass density (284.74 K, 29331 kPa): 1305.75 ± 1.3 kg/m3
mass density (285.12 K, 9993.5 kPa): 1296.4 ± 1.3 kg/m3
mass density (285.2 K, 19389 kPa): 1300.88 ± 1.3 kg/m3
mass density (285.8 K, 1326.9 kPa): 1292.98 ± 1.3 kg/m3
mass density (290.95 K, 50018 kPa): 1309.1 ± 1.3 kg/m3
mass density (291.3 K, 39987 kPa): 1305.11 ± 1.3 kg/m3
mass density (291.58 K, 20094 kPa): 1295.79 ± 1.3 kg/m3
mass density (291.59 K, 10267 kPa): 1292.43 ± 1.3 kg/m3
mass density (292 K, 30197 kPa): 1300.22 ± 1.3 kg/m3
mass density (292.03 K, 1055.4 kPa): 1288.31 ± 1.3 kg/m3
mass density (298.14 K, 10219 kPa): 1287.74 ± 1.3 kg/m3
mass density (298.14 K, 19834 kPa): 1291.82 ± 1.3 kg/m3
mass density (298.15 K, 20203 kPa): 1291.81 ± 1.3 kg/m3
mass density (298.15 K, 29284 kPa): 1295.18 ± 1.3 kg/m3
mass density (298.15 K, 39774 kPa): 1299.63 ± 1.3 kg/m3
mass density (298.15 K, 39935 kPa): 1299.63 ± 1.3 kg/m3
mass density (298.15 K, 50710 kPa): 1304.44 ± 1.3 kg/m3
mass density (298.15 K, 61191 kPa): 1308.4 ± 1.3 kg/m3
mass density (298.16 K, 30299 kPa): 1295.16 ± 1.3 kg/m3
mass density (298.63 K, 1139.7 kPa): 1283.3 ± 1.3 kg/m3
mass density (304.09 K, 59595 kPa): 1303.87 ± 1.3 kg/m3
mass density (304.39 K, 39527 kPa): 1294.57 ± 1.3 kg/m3
mass density (304.61 K, 49734 kPa): 1299.01 ± 1.3 kg/m3
mass density (304.62 K, 29983 kPa): 1291.2 ± 1.3 kg/m3
mass density (304.69 K, 10037 kPa): 1282.74 ± 1.3 kg/m3
mass density (304.69 K, 19721 kPa): 1287.13 ± 1.3 kg/m3
mass density (305.23 K, 1194.1 kPa): 1278.54 ± 1.3 kg/m3
mass density (311.4 K, 39938 kPa): 1290.56 ± 1.3 kg/m3
mass density (311.49 K, 30054 kPa): 1286.49 ± 1.3 kg/m3
mass density (311.51 K, 60021 kPa): 1298.35 ± 1.3 kg/m3
mass density (311.55 K, 19542 kPa): 1282.12 ± 1.3 kg/m3
mass density (311.56 K, 10293 kPa): 1277.95 ± 1.3 kg/m3
mass density (311.72 K, 50382 kPa): 1293.87 ± 1.3 kg/m3
mass density (312.05 K, 1111.5 kPa): 1273.28 ± 1.3 kg/m3
mass density (318.36 K, 19918 kPa): 1277.33 ± 1.3 kg/m3
mass density (318.37 K, 9976 kPa): 1272.71 ± 1.3 kg/m3
mass density (318.37 K, 50094 kPa): 1289.9 ± 1.3 kg/m3
mass density (318.4 K, 39958 kPa): 1285.84 ± 1.3 kg/m3
mass density (318.49 K, 30004 kPa): 1281.46 ± 1.3 kg/m3
mass density (318.57 K, 60242 kPa): 1293.23 ± 1.3 kg/m3
mass density (319.24 K, 1155.6 kPa): 1268 ± 1.3 kg/m3
mass density (325.39 K, 60094 kPa): 1289.24 ± 1.3 kg/m3
mass density (325.5 K, 50050 kPa): 1285.18 ± 1.3 kg/m3
mass density (325.59 K, 30106 kPa): 1276.66 ± 1.3 kg/m3
mass density (325.59 K, 39966 kPa): 1280.8 ± 1.3 kg/m3
mass density (325.65 K, 9902.1 kPa): 1267.42 ± 1.3 kg/m3
mass density (325.66 K, 18720 kPa): 1272.06 ± 1.3 kg/m3
mass density (326.26 K, 1166.5 kPa): 1262.28 ± 1.3 kg/m3
mass density (332.57 K, 59788 kPa): 1284.52 ± 1.3 kg/m3
mass density (332.79 K, 39915 kPa): 1275.99 ± 1.3 kg/m3
mass density (332.85 K, 50074 kPa): 1280.13 ± 1.3 kg/m3
mass density (332.87 K, 29859 kPa): 1271.38 ± 1.3 kg/m3
mass density (332.99 K, 10159 kPa): 1261.67 ± 1.3 kg/m3
mass density (333.07 K, 19960 kPa): 1266.75 ± 1.3 kg/m3
mass density (333.62 K, 1252.9 kPa): 1257.28 ± 1.3 kg/m3
mass density (340.28 K, 59745 kPa): 1279.45 ± 1.3 kg/m3
mass density (340.35 K, 9969.2 kPa): 1256.69 ± 1.3 kg/m3
mass density (340.37 K, 19698 kPa): 1261.02 ± 1.3 kg/m3
mass density (340.39 K, 50227 kPa): 1275.3 ± 1.3 kg/m3
mass density (340.42 K, 39835 kPa): 1270.69 ± 1.3 kg/m3
mass density (340.55 K, 29899 kPa): 1266.08 ± 1.3 kg/m3
mass density (341.04 K, 1357.1 kPa): 1251.73 ± 1.3 kg/m3
mass density (347.77 K, 59854 kPa): 1274.63 ± 1.3 kg/m3
mass density (347.97 K, 10024 kPa): 1251.12 ± 1.3 kg/m3
mass density (348.02 K, 29830 kPa): 1260.33 ± 1.3 kg/m3
mass density (348.04 K, 19820 kPa): 1256 ± 1.3 kg/m3
mass density (348.15 K, 49790 kPa): 1269.99 ± 1.3 kg/m3
mass density (348.24 K, 39938 kPa): 1265.38 ± 1.3 kg/m3
mass density (355.85 K, 20035 kPa): 1250.42 ± 1.3 kg/m3
mass density (355.86 K, 29675 kPa): 1255.31 ± 1.3 kg/m3
mass density (356.01 K, 40147 kPa): 1259.61 ± 1.3 kg/m3
mass density (356.02 K, 49918 kPa): 1264.68 ± 1.3 kg/m3
mass density (356.4 K, 59860 kPa): 1269.25 ± 1.3 kg/m3
